Among the data in ChEMBL document CHEMBL1201862, “PubChem BioAssay data set” (2004) are IC50, EC50 and AC50 values, retold here.

The target of experiment [1] is Lytic switch protein BZLF1 (Epstein-Barr virus (strain B95-8) (HHV-4) (Human herpesvirus 4), UniProt P03206). As to the kind of experiment: EBV ZTA inhibitors, dose response, counter-screen for EBNA-1 inhibitor project, biochemical, fluorescence polarization, Epstein-Barr virus, 1536-well (AID 2377).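 Also: fluorescence polarization of Cy5-labelled ZRE DNA probe bound by purified Zta.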 Also noted: species or system human gammaherpesvirus 4. (A counterscreen serves to expose hits that act by an unwanted route or on another target.)
Sequence of Lytic switch protein BZLF1 (P03206 whole entry): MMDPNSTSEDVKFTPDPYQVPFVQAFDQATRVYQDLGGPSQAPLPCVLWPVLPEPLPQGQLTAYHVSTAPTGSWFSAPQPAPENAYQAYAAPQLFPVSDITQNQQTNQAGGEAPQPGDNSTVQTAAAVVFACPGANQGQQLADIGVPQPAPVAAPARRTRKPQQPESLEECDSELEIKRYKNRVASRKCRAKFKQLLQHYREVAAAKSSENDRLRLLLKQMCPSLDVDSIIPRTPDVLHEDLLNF

Experiment [2] deals with Epstein-Barr nuclear antigen 1 (Epstein-Barr virus (strain B95-8) (HHV-4) (Human herpesvirus 4), UniProt P03211). As to the kind of experiment: EBNA-1 inhibitors, dose response, biochemical, fluorescence polarization, 1536-well (AID 2381).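 Also: fluorescence polarization of a Cy5 DNA probe bound by EBNA-1 protein.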 Also noted: species or system human gammaherpesvirus 4. (In general: Polarisation of emitted light reports the rotation of a fluorescent probe.)
Sequence of Epstein-Barr nuclear antigen 1 (P03211 whole entry): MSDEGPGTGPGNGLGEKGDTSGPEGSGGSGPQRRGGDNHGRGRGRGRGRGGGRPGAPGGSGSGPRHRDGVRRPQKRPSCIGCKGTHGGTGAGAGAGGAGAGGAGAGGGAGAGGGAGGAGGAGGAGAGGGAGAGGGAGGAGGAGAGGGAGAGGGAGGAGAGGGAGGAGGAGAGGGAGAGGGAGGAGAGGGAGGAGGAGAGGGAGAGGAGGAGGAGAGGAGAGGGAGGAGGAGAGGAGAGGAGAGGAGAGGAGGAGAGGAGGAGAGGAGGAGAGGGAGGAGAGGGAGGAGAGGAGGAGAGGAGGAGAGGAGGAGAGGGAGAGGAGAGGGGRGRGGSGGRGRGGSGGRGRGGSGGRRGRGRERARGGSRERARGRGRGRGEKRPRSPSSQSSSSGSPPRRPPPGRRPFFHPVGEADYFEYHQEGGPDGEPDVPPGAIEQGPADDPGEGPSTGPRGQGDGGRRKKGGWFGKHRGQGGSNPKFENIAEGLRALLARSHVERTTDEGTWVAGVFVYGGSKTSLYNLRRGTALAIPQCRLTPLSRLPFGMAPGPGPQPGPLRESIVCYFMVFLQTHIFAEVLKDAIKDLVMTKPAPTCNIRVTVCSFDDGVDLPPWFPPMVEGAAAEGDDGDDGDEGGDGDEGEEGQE

Experiment [3] concerns the target T1, Alkaline phosphatase, tissue-nonspecific isozyme (Homo sapiens, UniProt P05186).
T1 sequence (P05186 whole entry): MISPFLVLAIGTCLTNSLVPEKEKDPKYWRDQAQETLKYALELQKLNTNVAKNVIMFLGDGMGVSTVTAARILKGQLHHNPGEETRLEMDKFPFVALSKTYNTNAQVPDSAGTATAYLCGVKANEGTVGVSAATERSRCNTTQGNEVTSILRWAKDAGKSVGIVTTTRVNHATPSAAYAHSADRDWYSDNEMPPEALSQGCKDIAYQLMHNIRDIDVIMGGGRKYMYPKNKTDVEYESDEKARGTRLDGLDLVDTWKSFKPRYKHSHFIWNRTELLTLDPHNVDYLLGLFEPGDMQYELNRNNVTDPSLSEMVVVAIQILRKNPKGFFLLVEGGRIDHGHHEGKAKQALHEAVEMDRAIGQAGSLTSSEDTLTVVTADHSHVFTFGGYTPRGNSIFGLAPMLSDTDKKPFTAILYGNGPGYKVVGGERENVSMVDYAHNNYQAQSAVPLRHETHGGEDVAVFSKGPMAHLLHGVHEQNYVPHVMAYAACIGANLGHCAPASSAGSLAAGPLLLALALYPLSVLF

A short description of experiment [4]: MC4R antagonists, dose response, counter-screen for LGR2 antagonist project, cell-based, plate reader, cherry pick (AID 743444).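 Also: transfected HEK 293 cells stimulated with alpha-MSH peptide; potency of inhibitors of the alpha-MSH evoked signal.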 The format is functional.
The nature of experiment [5]: inhibitors of HIV Env-driven cell fusion, dose response, cherry-pick (AID 652057). The format is functional, cell-based.
A short description of experiment [6]: inhibitors of SNCA 5'UTR-driven translation, confirmation, luminescence, H4 neuroglioblastoma cells, dose confirmation (AID 2454).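 Also: H4 neuroglioblastoma cells carrying an alpha-synuclein 5'UTR luciferase reporter; potency for inhibition of the luciferase signal.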 It is filed as functional, cell-based.
Experiment [7] deals with T2, Heat shock factor protein 1 (Mus musculus, UniProt P38532).
T2 sequence (P38532 whole entry): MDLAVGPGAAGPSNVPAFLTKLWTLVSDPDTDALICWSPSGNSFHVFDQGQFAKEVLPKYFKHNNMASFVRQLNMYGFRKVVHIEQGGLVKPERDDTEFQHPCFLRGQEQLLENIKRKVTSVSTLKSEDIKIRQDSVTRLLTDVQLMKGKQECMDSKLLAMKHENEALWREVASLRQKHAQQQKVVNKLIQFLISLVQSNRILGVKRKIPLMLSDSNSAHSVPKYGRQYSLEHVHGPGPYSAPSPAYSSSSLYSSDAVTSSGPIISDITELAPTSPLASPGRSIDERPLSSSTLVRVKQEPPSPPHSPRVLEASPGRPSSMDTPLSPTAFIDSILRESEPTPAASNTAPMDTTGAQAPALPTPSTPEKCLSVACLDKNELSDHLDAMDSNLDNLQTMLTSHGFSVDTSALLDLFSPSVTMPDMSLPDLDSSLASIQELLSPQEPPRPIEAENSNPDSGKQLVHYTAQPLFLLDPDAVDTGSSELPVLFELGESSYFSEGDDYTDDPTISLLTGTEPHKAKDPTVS
As to the kind of experiment: inhibition of MG132-induced HSE-luciferase signal, confirmation, cell-based, NIH3T3, luminescence, dose retest (AID 2382).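 Also: NIH3T3 fibroblasts with HSF1-driven luciferase reporter stressed by proteasome inhibitor MG132; luminescence from HSF1-driven luciferase expression after 8 hours of MG132 stress.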 It is filed as functional.

A short description of experiment [8]: Luminescence Cell-Based Dose Response HTS to Identify Inhibitors of 5'UTR Stem-Loop Driven Prion Protein mRNA Translation in H4 Neuroglioblastoma Cells. [Related pubchem assays: 1827 (Project Summary), 1813 (Primary HTS)]. It is filed as functional.
Experiment [9] can be described thus: HEK293 cell cytotoxicity, dose response, cytotoxicity control, plate reader, cherry-picked samples (AID 743446). The format is functional, cell-based.
For experiment [10], the target named is Paired box protein Pax-8 (Homo sapiens, UniProt Q06710). As to the kind of experiment: inhibitors of PAX8-driven TPO luciferase reporter, dose response, RMG-I cells, cherry-pick (AID 687027).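 Also: luciferase reporter driven by Pax8 target thyroperoxidase promoter measured by SteadyGlo luminescence.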 The format is functional, cell-based. (Reporter assays use an easily measured gene product as a stand-in for the process of interest.)
Sequence of Paired box protein Pax-8 (Q06710 whole entry, the tested form may be a part): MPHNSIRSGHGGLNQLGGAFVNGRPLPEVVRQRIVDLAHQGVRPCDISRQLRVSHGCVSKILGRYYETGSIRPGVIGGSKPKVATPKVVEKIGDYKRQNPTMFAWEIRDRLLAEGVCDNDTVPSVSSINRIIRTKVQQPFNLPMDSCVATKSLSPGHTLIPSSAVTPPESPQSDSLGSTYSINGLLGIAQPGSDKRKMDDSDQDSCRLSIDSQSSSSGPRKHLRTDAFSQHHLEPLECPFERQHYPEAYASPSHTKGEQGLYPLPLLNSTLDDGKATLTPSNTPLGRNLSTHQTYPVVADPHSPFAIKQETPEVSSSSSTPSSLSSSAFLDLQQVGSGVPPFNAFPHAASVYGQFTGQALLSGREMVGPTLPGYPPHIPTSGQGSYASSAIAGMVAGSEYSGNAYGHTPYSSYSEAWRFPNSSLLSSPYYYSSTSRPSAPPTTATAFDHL
The nature of experiment [11]: off-target signal loss in HeLa-CEM21 co-culture – HeLa F-luc CTL cells, cherry-picked, counter-screen for HIV-1 Env fusion inhibitor project, dose response (AID 652040).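 Also: potency for signal decrease marking cytotoxic or nonspecific inhibition.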 The format is functional, cell-based.
Experiment [12] addresses FAD-linked sulfhydryl oxidase ALR (Homo sapiens, UniProt P55789). As to the kind of experiment: inhibitors of human ALR sulfhydryl oxidase, dose response, biochemical, H2O2 detection, luminescence, cherry-pick (AID 493248).
A short description of experiment [13]: inhibitors of clade B AD8 Env fusion, dose response, cell-based, cherry-pick (AID 652062).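 Also: luciferase signal from cell-cell fusion driven by HIV-1 clade B AD8 Env; potency is for inhibitors of fusion seen as a drop in luminescence.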 It is filed as functional.
Experiment [14] can be described thus: Luminescence-based counterscreen assay for KLF5 inhibitors: dose response cell-based high throughput screening assay to identify cytotoxic compounds using the IEC-6 intestinal epithelial cell line. [Related pubchem assays: 1700 (Primary screen.), 1834 (Confirmation screen.), 1858 (Summary AID.), 1905 (Counterscreen.)]. The format is functional.
Experiment [15] in a line: cells. The format is functional, cell-based.
Experiment [16] is described as follows: inhibitors of SNCA 5'UTR-driven reporter translation, confirmation, H4 neuroglioma cells, luminescence (AID 1988). It is filed as functional, cell-based.
A short description of experiment [17]: ZM109 Env clade C HIV-1 fusion inhibitors, dose response, HeLa effector, CEM target cells, luciferase, cherry-pick (AID 652058). It is filed as functional, cell-based.
Experiment [18] can be described thus: inhibitors of firefly luciferase expression or activity, dose response, H4 neuroglioma cells, luminescence (AID 1990). It is filed as functional, cell-based.
Experiment [19] can be described thus: A549 cell cytotoxicity, dose response, cytotoxicity control, plate reader, cherry-pick, antagonist series (AID 743412). It is filed as functional, cell-based.
Experiment [20] can be described thus: luciferase reporter signal reduction – luminescence, H4-C neuroglioblastoma cells, dose response (AID 2458).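 Also: H4 neuroglioblastoma cells stably carrying a luciferase reporter gene fusion.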 It is filed as functional, cell-based.
Experiment [21] can be described thus: LGR2 antagonists, dose response, cell-based, HEK293, CRE-luciferase reporter, cherry pick, set 2 (AID 743343).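 Also: transfected cells were stimulated with diluted bursicon conditioned medium after compound addition.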 The format is functional.
Experiment [22] has as its target Cytochrome P450 3A4 (Homo sapiens, UniProt P08684). To be noted: Potency.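 Also: confirmatory qHTS run detecting inhibitors and substrates of CYP3A4.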
In experiment [23] the target is Cytochrome P450 2C9 (Homo sapiens, UniProt P11712). Conditions: Potency.
Sequence of Cytochrome P450 2C9 (P11712 whole entry): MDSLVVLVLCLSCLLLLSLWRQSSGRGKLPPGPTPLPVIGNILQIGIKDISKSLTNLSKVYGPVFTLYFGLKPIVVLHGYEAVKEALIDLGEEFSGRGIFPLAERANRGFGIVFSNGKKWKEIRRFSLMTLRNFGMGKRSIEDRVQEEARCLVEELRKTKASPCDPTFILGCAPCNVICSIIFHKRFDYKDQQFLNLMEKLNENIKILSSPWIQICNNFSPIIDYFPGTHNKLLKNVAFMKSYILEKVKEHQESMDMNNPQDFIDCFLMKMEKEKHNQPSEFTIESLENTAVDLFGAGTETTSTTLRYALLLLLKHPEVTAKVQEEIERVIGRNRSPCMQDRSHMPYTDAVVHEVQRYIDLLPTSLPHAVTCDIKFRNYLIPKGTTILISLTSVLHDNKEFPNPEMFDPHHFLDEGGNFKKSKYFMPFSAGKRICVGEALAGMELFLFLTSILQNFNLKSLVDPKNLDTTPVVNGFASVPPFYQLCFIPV
The target of experiment [24] is Estrogen receptor (Homo sapiens, UniProt P03372).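 Also: potency for inhibiting coactivator peptide recruitment to the receptor.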
Sequence of Estrogen receptor (P03372 whole entry): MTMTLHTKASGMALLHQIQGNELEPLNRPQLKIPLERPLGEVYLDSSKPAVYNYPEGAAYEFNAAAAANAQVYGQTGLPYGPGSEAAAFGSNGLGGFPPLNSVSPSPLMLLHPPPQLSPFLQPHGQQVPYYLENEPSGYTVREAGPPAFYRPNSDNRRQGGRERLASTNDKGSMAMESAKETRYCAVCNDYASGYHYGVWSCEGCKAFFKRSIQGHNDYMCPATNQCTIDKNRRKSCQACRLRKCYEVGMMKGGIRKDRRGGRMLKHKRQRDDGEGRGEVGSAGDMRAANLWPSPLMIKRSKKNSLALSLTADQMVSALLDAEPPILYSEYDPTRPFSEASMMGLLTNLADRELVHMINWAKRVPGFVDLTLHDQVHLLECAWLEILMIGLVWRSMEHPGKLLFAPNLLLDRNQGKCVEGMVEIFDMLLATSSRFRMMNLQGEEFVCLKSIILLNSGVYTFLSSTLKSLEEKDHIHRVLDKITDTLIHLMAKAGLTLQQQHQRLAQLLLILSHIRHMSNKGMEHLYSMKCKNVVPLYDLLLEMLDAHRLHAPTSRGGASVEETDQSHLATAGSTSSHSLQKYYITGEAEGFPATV

The structures appear in SMILES notation. Active and inactive are the calls of the source. Where only a bound is given, the exact number is not on record here.

Sequence of FAD-linked sulfhydryl oxidase ALR (P55789 whole entry, the tested form may be a part): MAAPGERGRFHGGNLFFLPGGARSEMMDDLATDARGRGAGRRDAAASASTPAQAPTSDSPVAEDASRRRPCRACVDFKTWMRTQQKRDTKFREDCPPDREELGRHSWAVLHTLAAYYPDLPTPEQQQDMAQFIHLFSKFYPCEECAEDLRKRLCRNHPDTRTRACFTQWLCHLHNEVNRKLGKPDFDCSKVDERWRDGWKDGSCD
Sequence of Cytochrome P450 3A4 (P08684 whole entry): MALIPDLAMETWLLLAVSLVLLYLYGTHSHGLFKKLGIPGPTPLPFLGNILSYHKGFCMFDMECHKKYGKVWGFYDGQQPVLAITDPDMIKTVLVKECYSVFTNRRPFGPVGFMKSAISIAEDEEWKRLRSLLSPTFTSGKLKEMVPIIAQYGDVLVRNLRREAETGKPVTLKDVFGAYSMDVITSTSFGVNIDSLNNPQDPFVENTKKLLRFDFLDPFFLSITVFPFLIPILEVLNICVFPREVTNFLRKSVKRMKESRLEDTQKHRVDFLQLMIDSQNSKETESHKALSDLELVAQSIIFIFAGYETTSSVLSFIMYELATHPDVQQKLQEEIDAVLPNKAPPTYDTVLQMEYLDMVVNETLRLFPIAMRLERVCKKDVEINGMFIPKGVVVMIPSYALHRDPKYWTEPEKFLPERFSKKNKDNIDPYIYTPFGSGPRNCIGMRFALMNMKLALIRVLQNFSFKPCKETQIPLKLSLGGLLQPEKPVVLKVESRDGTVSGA

Take `CCN(CC)S(=O)(=O)c1ccc(C(=O)Nc2nnc(N=C(S)Nc3ccccc3)s2)cc1`: the IC50 was > 111 µM (not active) in experiment [1] and 6.46 µM (active) in experiment [2].

Take `Cc1ccc(OCC(=O)Nc2ccc3c(c2)OCCO3)cc1C`: the EC50 in [3] was > 100 µM (not active).

Turning to `O=C(O)c1cccc(COc2ccc3c(c2)CCC3)c1`, the AC50 in experiment [4] is 0.383 µM (active); in experiment [5], 0.684 µM (active); in [9] it was > 52 µM (inactive); in experiment [10], 3.79 µM (active); in [11], 1.68 µM (active); in experiment [12] it was 1.37 µM (active). Further, the AC50 in [13] was 1.47 µM (active); in [17], 5.09 µM (active); in [19], > 52 µM (inactive); in experiment [21], 0.326 µM (active). The EC50 in [6] is 0.197 µM (active); in experiment [7], 0.376 µM (inconclusive); in experiment [8], < 0.1 µM (active); in experiment [15], 0.538 µM (active); in [16] it was < 0.1 µM (active); in experiment [18] it was 0.212 µM (active). Further, the EC50 in experiment [20] is 0.233 µM (active). Moreover, the IC50 in experiment [14] was > 39.8 µM (not active).

In the case of `CC1CCC2C(=O)N3C(CCC(C)C3c3ccccc3Br)C(=O)N2C1c1ccc(C#CCN(C)C)cc1` (centres undefined), the AC50 in experiment [22] is 3.16 µM (inconclusive); in [23], 3.98 µM (inconclusive).

Take `Cc1cc(NC(=O)CSc2nc3c(c(=O)n2CCc2ccccc2)SC(C)C3)no1` (centres undefined): the IC50 in experiment [24] is listed as 33.6 µM (not active).

As a reminder, the IC50 is the concentration at which inhibition is half-maximal. By EC50 is commonly meant the concentration that produces a half-maximal response. The term AC50 denotes the concentration at which the activity in the assay is half-maximal.
